Assay: Diffusion coefficient (Dcoeff) of FtsA from FRAP
Settings: for Diffusion Coefficient, mean: Fig. 3j
From the text: We could also use the data from these bleaching experiments to quantify the membrane-binding kinetics and diffusion of membrane-bound proteins by analysing the change of the fluorescence profile during recovery.
Equimolar concentrations of Cy3- and Cy5-labelled FtsA, supplemented with 20% unlabelled FtsA were used to study FRET and FRAP. Five pre-bleach frames were acquired, followed by acceptor photobleaching of a rectangular ROI with 40% 641 nm laser power and a dwell size of 1 µs/pixel, 75% overlapping lines. The recovery of the signal or the increase in donor intensity were measured with either two frames or one frame per second.
Bleaching the acceptor dye leads to an increase in the donor intensity, which can be used to quantify the Foerster Resonance energy transfer (FRET)[48]. FRET efficiency was quantified with E%=Ipost/Ipost+Ipre⋅100 , where Ipost is the intensity of the […] and Ipre is the […]. […] To extract the contribution of both processes, we adjusted a routine recently published by Gerganova et al.[33]. In short, the code provides the contribution of both modes of recovery by analysing the shape of the fluorescence recovery profile. […] Contribution of diffusion leads to a change of the slope of the outer borders of the bleached region (S4h right). Thus, by measuring the change of the slope of the border recovery, diffusion and simple on/off binding can be distinguished. We developed “FRAPdiff”, a graphical user interface, which uses the original fit routine by David Rutkowski. It can be used directly on.tiff movies with annotated bleach regions as ImageJ ROIs. In addition, we added optional bleach correction, user selectable projection axis (x or y), and optional mirroring of the recovery profiles, if bleaching was not symmetric. The original fit routine for estimating the recovery and diffusion dynamics can be found at https://github.com/davidmrutkowski/1DReflectingDiffusion. FRAPdiff is available at 10.5281/zenodo.6400639[49] under the GPLv3 open-source license.

## FtsA WT: wild-type E. coli actin-homologue FtsA, membrane anchor of FtsZ
0.1 µM FtsA + N
  Diffusion Coefficient, mean: 1.61E-02 µm2/s
0.1 µM FtsA + Z&N
  Diffusion Coefficient, mean: 1.18E-02 µm2/s
0.1 µM FtsA + Z
  Diffusion Coefficient, mean: 1.69E-02 µm2/s
0.1µM FtsA alone, Mean, n=18 (WT), 6 (R286W)
  Diffusion Coefficient: 0.0268
0.1 µM FtsA alone
  Diffusion Coefficient, mean: 2.68E-02 µm2/s
0.1µM FtsA alone, replicate Exp.1
  Diffusion Coefficient: 5.58E-02
0.1µM FtsA alone, replicate Exp.10
  Diffusion Coefficient: 2.60E-03
0.1µM FtsA alone, replicate Exp.11
  Diffusion Coefficient: 5.85E-03
0.1µM FtsA alone, replicate Exp.12
  Diffusion Coefficient: 4.68E-03
0.1µM FtsA alone, replicate Exp.13
  Diffusion Coefficient: 4.29E-02
0.1µM FtsA alone, replicate Exp.14
  Diffusion Coefficient: 3.12E-02
0.1µM FtsA alone, replicate Exp.15
  Diffusion Coefficient: 2.09E-02
0.1µM FtsA alone, replicate Exp.16
  Diffusion Coefficient: 1.45E-02
0.1µM FtsA alone, replicate Exp.17
  Diffusion Coefficient: 4.66E-02
0.1µM FtsA alone, replicate Exp.18
  Diffusion Coefficient: 2.25E-02
0.1µM FtsA alone, replicate Exp.2
  Diffusion Coefficient: 3.42E-03
0.1µM FtsA alone, replicate Exp.3
  Diffusion Coefficient: 1.87E-02
0.1µM FtsA alone, replicate Exp.4
  Diffusion Coefficient: 5.22E-02
0.1µM FtsA alone, replicate Exp.5
  Diffusion Coefficient: 2.45E-02
0.1µM FtsA alone, replicate Exp.6
  Diffusion Coefficient: 4.34E-02
0.1µM FtsA alone, replicate Exp.7
  Diffusion Coefficient: 4.83E-02
0.1µM FtsA alone, replicate Exp.8
  Diffusion Coefficient: 3.63E-02
0.1µM FtsA alone, replicate Exp.9
  Diffusion Coefficient: 8.38E-03
0.1µM, + FtsN&Z, Mean, n=5 (WT), 3 (R286W)
  Diffusion Coefficient: 0.0118
0.1µM, + FtsN&Z, replicate Exp.1
  Diffusion Coefficient: 3.37E-03
0.1µM, + FtsN&Z, replicate Exp.2
  Diffusion Coefficient: 5.52E-03
0.1µM, + FtsN&Z, replicate Exp.3
  Diffusion Coefficient: 9.34E-03
0.1µM, + FtsN&Z, replicate Exp.4
  Diffusion Coefficient: 2.03E-02
0.1µM, + FtsN&Z, replicate Exp.5
  Diffusion Coefficient: 2.02E-02
0.1µM, + FtsN, Mean, n=5 (WT), 3 (R286W)
  Diffusion Coefficient: 0.0161
0.1µM, + FtsN, replicate Exp.1
  Diffusion Coefficient: 2.03E-02
0.1µM, + FtsN, replicate Exp.2
  Diffusion Coefficient: 6.39E-04
0.1µM, + FtsN, replicate Exp.3
  Diffusion Coefficient: 1.18E-02
0.1µM, + FtsN, replicate Exp.4
  Diffusion Coefficient: 1.64E-02
0.1µM, + FtsN, replicate Exp.5
  Diffusion Coefficient: 3.14E-02
0.1µM, + FtsZ, Mean, n=8 (WT), 4 (R286W)
  Diffusion Coefficient: 0.0169
0.1µM, + FtsZ, replicate Exp.1
  Diffusion Coefficient: 1.01E-02
0.1µM, + FtsZ, replicate Exp.2
  Diffusion Coefficient: 2.79E-03
0.1µM, + FtsZ, replicate Exp.3
  Diffusion Coefficient: 1.71E-02
0.1µM, + FtsZ, replicate Exp.4
  Diffusion Coefficient: 3.53E-02
0.1µM, + FtsZ, replicate Exp.5
  Diffusion Coefficient: 2.97E-02
0.1µM, + FtsZ, replicate Exp.6
  Diffusion Coefficient: 3.44E-03
0.1µM, + FtsZ, replicate Exp.7
  Diffusion Coefficient: 2.52E-02
0.1µM, + FtsZ, replicate Exp.8
  Diffusion Coefficient: 1.14E-02
0.2 µM FtsA + N
  Diffusion Coefficient, mean: 1.32E-02 µm2/s
0.2 µM FtsA + Z&N
  Diffusion Coefficient, mean: 7.76E-03 µm2/s
0.2 µM FtsA + Z
  Diffusion Coefficient, mean: 8.12E-03 µm2/s
0.2µM FtsA alone, Mean, n=24 (WT), 6 (R286W)
  Diffusion Coefficient: 0.0177
0.2 µM FtsA alone
  Diffusion Coefficient, mean: 1.77E-02 µm2/s
0.2µM FtsA alone, replicate Exp.1
  Diffusion Coefficient: 1.00E-02
0.2µM FtsA alone, replicate Exp.10
  Diffusion Coefficient: 2.11E-07
0.2µM FtsA alone, replicate Exp.11
  Diffusion Coefficient: 2.08E-02
0.2µM FtsA alone, replicate Exp.12
  Diffusion Coefficient: 4.11E-02
0.2µM FtsA alone, replicate Exp.13
  Diffusion Coefficient: 2.52E-02
0.2µM FtsA alone, replicate Exp.14
  Diffusion Coefficient: 2.77E-02
0.2µM FtsA alone, replicate Exp.15
  Diffusion Coefficient: 1.77E-05
0.2µM FtsA alone, replicate Exp.16
  Diffusion Coefficient: 1.11E-02
0.2µM FtsA alone, replicate Exp.17
  Diffusion Coefficient: 1.44E-03
0.2µM FtsA alone, replicate Exp.18
  Diffusion Coefficient: 2.14E-02
0.2µM FtsA alone, replicate Exp.19
  Diffusion Coefficient: 1.18E-02
0.2µM FtsA alone, replicate Exp.2
  Diffusion Coefficient: 4.63E-02
0.2µM FtsA alone, replicate Exp.20
  Diffusion Coefficient: 1.47E-02
0.2µM FtsA alone, replicate Exp.21
  Diffusion Coefficient: 5.71E-03
0.2µM FtsA alone, replicate Exp.22
  Diffusion Coefficient: 9.23E-03
0.2µM FtsA alone, replicate Exp.23
  Diffusion Coefficient: 4.39E-06
0.2µM FtsA alone, replicate Exp.24
  Diffusion Coefficient: 1.05E-03
0.2µM FtsA alone, replicate Exp.3
  Diffusion Coefficient: 3.82E-02
0.2µM FtsA alone, replicate Exp.4
  Diffusion Coefficient: 2.69E-04
0.2µM FtsA alone, replicate Exp.5
  Diffusion Coefficient: 3.65E-02
0.2µM FtsA alone, replicate Exp.6
  Diffusion Coefficient: 2.63E-02
0.2µM FtsA alone, replicate Exp.7
  Diffusion Coefficient: 1.83E-02
0.2µM FtsA alone, replicate Exp.8
  Diffusion Coefficient: 5.09E-02
0.2µM FtsA alone, replicate Exp.9
  Diffusion Coefficient: 5.70E-03
0.2µM, + FtsN&Z, Mean, n=8 (WT), 6 (R286W)
  Diffusion Coefficient: 0.0078
0.2µM, + FtsN&Z, replicate Exp.1
  Diffusion Coefficient: 1.04E-02
0.2µM, + FtsN&Z, replicate Exp.2
  Diffusion Coefficient: 2.82E-03
0.2µM, + FtsN&Z, replicate Exp.3
  Diffusion Coefficient: 5.82E-03
0.2µM, + FtsN&Z, replicate Exp.4
  Diffusion Coefficient: 1.62E-02
0.2µM, + FtsN&Z, replicate Exp.5
  Diffusion Coefficient: 5.88E-03
0.2µM, + FtsN&Z, replicate Exp.6
  Diffusion Coefficient: 3.75E-03
0.2µM, + FtsN&Z, replicate Exp.7
  Diffusion Coefficient: 5.36E-03
0.2µM, + FtsN&Z, replicate Exp.8
  Diffusion Coefficient: 1.18E-02
0.2µM, + FtsN, Mean, n=7 (WT), 4 (R286W)
  Diffusion Coefficient: 0.0132
0.2µM, + FtsN, replicate Exp.1
  Diffusion Coefficient: 1.41E-02
0.2µM, + FtsN, replicate Exp.2
  Diffusion Coefficient: 1.35E-02
0.2µM, + FtsN, replicate Exp.3
  Diffusion Coefficient: 8.81E-03
0.2µM, + FtsN, replicate Exp.4
  Diffusion Coefficient: 1.88E-02
0.2µM, + FtsN, replicate Exp.5
  Diffusion Coefficient: 1.36E-02
0.2µM, + FtsN, replicate Exp.6
  Diffusion Coefficient: 1.15E-02
0.2µM, + FtsN, replicate Exp.7
  Diffusion Coefficient: 1.21E-02
0.2µM, + FtsZ, Mean, n=7 (WT), 6 (R286W)
  Diffusion Coefficient: 0.0081
0.2µM, + FtsZ, replicate Exp.1
  Diffusion Coefficient: 8.42E-03
0.2µM, + FtsZ, replicate Exp.2
  Diffusion Coefficient: 4.10E-03
0.2µM, + FtsZ, replicate Exp.3
  Diffusion Coefficient: 4.88E-04
